In US9181305B2, “Exendin-4 peptide analogues” (SANOFI, priority 2012, dated 2015) one finds EC50 and solubility data, which are given here for six compounds.

Data set [1] deals with T1, human glucagon receptor (hGlucagon R) (Homo sapiens, UniProt P47871).
T1 construct: expressed in transfected cells; host or cells: HEK-293
Briefly: cAMP response (HTRF) of HEK-293 cells stably expressing human glucagon receptor. The class given is cell-based. Particulars: read-out: EC50 hGlucagonR. How it is done:
cAMP content of cells was determined using a kit from Cisbio Corp. (cat. no. 62AM4PEC) based on HTRF (Homogenous Time Resolved Fluorescence). For preparation, cells were split into T175 culture flasks and grown overnight to near confluency in medium (DMEM/10% FBS). Medium was then removed and cells washed with PBS lacking calcium and magnesium, followed by proteinase treatment with accutase (Sigma-Aldrich cat. no. A6964). Detached cells were washed and resuspended in assay buffer (1×HBSS; 20 mM HEPES, 0.1% BSA, 2 mM IBMX) and cellular density determined. […] For measurement, 25 μl of test compound in assay buffer was added to the wells, followed by incubation for 30 minutes at room temperature.

The next data set is described as follows: physchem. The class given is physicochemical. How it is done: Prior to the testing of solubility and stability of a peptide batch, its content was determined. Therefore, two parameters were investigated, its purity (HPLC-UV) and the amount of salt load of the batch (ion chromatography). Since synthesized peptides contain primarily trifluoracetate anions, only anion chromatography was performed. The content was then calculated based on the assumption that peptide-related impurities are detected at the same UV-absorption rate as the target peptide, as well as that cations are not present in the sample.
Therefore, solutions from solid samples were prepared in different buffer systems with a concentration of 1.0 mg/mL compound based on the previously determined content. HPLC-UV was performed after 2 h of gentle agitation from the supernatant, which was obtained by 20 min of centrifugation at 4000 rpm. […] This analysis also served as t0 for the stability testing.
Instrument: Agilent 1100, column: X-Bridge C18 3.5 μm 2.1×150 mm (Waters), eluent: A: H20+500 ppm TFA/B: Methanol, flow: 0.55 ml/min, gradient: 0-5 min: 10-60% B; 5-15 min: 60-99% B; detection: 214 nm.

Data set [2] concerns the target T2, human GLP-1 receptor (hGLP-1 R) (Homo sapiens, UniProt P43220).
T2 construct: expressed in transfected cells; host or cells: HEK-293
Briefly: cAMP response (HTRF) of HEK-293 cells stably expressing human GLP-1 receptor. Particulars: HEK-293 cells expressing human GLP-1 receptor, cAMP formation. The format is cell-based. The method, boiled down: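 Detached HEK-293 cells stably expressing the receptor were suspended in HBSS with 20 mM HEPES, 0.1% BSA and 2 mM IBMX. Test compound was added for 30 min at room temperature, and cellular cAMP was quantified by HTRF.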

Converted amounts (≈) assume the structure as drawn. *1 amine or outer side, *2 acyl side, *3 side chain or, on linkers, in order; H or OH if unused. Where a SMILES comes first, the peptide text is derived from it. Side-chain parts run from the residue outwards. [ ]: non-standard residue; d: D form. The star is where a group is joined. γGlu = O=C(O)[C@H](CCC(=O)[*:2])N[*:1]; Palmitoyl = CCCCCCCCCCCCCCCC(=O)*

T1 sequence (P47871 26-477): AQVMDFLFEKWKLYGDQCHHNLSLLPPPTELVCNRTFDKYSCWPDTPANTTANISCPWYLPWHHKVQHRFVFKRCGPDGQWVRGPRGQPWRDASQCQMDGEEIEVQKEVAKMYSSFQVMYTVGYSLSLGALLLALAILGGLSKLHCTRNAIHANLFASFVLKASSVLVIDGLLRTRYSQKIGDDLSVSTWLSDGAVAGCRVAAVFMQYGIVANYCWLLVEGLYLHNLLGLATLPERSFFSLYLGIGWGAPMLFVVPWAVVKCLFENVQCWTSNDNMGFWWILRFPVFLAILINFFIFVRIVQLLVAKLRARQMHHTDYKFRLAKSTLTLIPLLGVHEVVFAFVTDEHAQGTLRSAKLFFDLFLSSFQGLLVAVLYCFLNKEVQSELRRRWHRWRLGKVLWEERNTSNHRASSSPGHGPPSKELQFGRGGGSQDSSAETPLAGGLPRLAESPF
T2 sequence (P43220 24-463): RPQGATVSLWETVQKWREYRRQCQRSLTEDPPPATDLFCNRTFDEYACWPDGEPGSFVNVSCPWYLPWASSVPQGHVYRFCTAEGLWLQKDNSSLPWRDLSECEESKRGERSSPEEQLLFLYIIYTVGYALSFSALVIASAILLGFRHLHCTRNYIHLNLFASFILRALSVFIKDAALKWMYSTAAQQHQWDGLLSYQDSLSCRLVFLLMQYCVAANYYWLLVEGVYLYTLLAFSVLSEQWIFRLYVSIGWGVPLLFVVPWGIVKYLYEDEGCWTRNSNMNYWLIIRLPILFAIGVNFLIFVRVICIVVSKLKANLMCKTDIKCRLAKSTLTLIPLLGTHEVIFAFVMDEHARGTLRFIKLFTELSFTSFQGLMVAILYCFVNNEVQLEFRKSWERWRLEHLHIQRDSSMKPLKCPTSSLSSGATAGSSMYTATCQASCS

The term EC50 denotes the concentration giving half of the maximal effect. As to `CCCCCCCCCCCCCCCC(=O)N[C@@H](CCC(=O)NCCCC[C@H](NC(=O)[C@H](CO)NC(=O)[C@@H]1CCCN1C(=O)[C@@H]1CCCN1C(=O)[C@@H]1CCCN1C(=O)[C@H](C)NC(=O)CNC(=O)[C@H](CO)NC(=O)[C@H](CO)NC(=O)[C@@H]1CCCN1C(=O)CNC(=O)[C@H](C)NC(=O)[C@H](CC(N)=O)NC(=O)[C@H](CCCCN)NC(=O)[C@H](CC(C)C)NC(=O)[C@H](Cc1c[nH]c2ccccc12)NC(=O)[C@H](CCC(=O)O)NC(=O)[C@@H](NC(=O)[C@H](Cc1ccccc1)NC(=O)[C@H](CC(=O)O)NC(=O)[C@H](CCC(N)=O)NC(=O)[C@H](C)NC(=O)[C@H](CCCNC(=N)N)NC(=O)[C@H](CCCNC(=N)N)NC(=O)[C@H](CO)NC(=O)[C@H](CCC(=O)O)NC(=O)[C@H](CCSC)NC(=O)[C@H](CCC(N)=O)NC(=O)[C@H](CCCCN)NC(=O)[C@H](CO)NC(=O)[C@H](CC(C)C)NC(=O)[C@H](CC(=O)O)NC(=O)[C@H](CO)NC(=O)[C@@H](NC(=O)[C@H](Cc1ccccc1)NC(=O)[C@@H](NC(=O)CNC(=O)[C@H](CCC(N)=O)NC(=O)[C@@H](CO)NC(=O)[C@@H](N)Cc1c[nH]cn1)[C@@H](C)O)[C@@H](C)O)[C@@H](C)CC)C(N)=O)C(=O)O` [(64)] (H-H[dS]QGTFTSDLSKQMESRRAQDFIEWLKNAGPSSGAPPPSK([γGlu-Palmitoyl])-NH2), in data set [1], the EC50 was 67 pM.
As a reminder, the solubility is how much of the substance goes into solution per volume. Low values mean a poorly soluble substance, high ones a readily soluble substance. Turning to `CCCCCCCCCCCCCCCC(=O)N[C@@H](CCC(=O)NCCCC[C@H](NC(=O)[C@H](CO)NC(=O)[C@@H]1CCCN1C(=O)[C@@H]1CCCN1C(=O)[C@@H]1CCCN1C(=O)[C@H](C)NC(=O)CNC(=O)[C@H](CO)NC(=O)[C@H](CO)NC(=O)[C@@H]1CCCN1C(=O)CNC(=O)CNC(=O)[C@H](CO)NC(=O)[C@H](CCCCN)NC(=O)[C@H](CC(C)C)NC(=O)[C@H](Cc1c[nH]c2ccccc12)NC(=O)[C@H](CCC(=O)O)NC(=O)[C@@H](NC(=O)[C@H](Cc1ccccc1)NC(=O)[C@H](CC(=O)O)NC(=O)[C@H](CCC(N)=O)NC(=O)[C@H](C)NC(=O)[C@H](CCCNC(=N)N)NC(=O)[C@H](CCCNC(=N)N)NC(=O)[C@H](CO)NC(=O)[C@H](CCC(=O)O)NC(=O)[C@H](CCSC)NC(=O)[C@H](CCC(N)=O)NC(=O)[C@H](CCCCN)NC(=O)[C@H](CO)NC(=O)[C@H](CC(C)C)NC(=O)[C@H](CC(=O)O)NC(=O)[C@H](CO)NC(=O)[C@@H](NC(=O)[C@H](Cc1ccccc1)NC(=O)[C@@H](NC(=O)CNC(=O)[C@H](CCC(N)=O)NC(=O)[C@@H](CO)NC(=O)[C@@H](N)Cc1c[nH]cn1)[C@@H](C)O)[C@@H](C)O)[C@@H](C)CC)C(N)=O)C(=O)O` [(78)] (H-H[dS]QGTFTSDLSKQMESRRAQDFIEWLKSGGPSSGAPPPSK([γGlu-Palmitoyl])-NH2), the solubility at 2 h in the data set “physchem” (pH 4.5) and in “physchem” (pH 7.4) was more than 1000 µg/mL each time. Also, the EC50 in data set [2] came out at 4.2 pM.
As to `CCCCCCCCCCCCCCCC(=O)N[C@@H](CCC(=O)NCCCC[C@H](NC(=O)[C@H](CO)NC(=O)[C@@H]1CCCN1C(=O)[C@@H]1CCCN1C(=O)[C@@H]1CCCN1C(=O)[C@H](C)NC(=O)CNC(=O)[C@H](CO)NC(=O)[C@H](CO)NC(=O)[C@@H]1CCCN1C(=O)CNC(=O)CNC(=O)[C@H](C)NC(=O)[C@H](CCCCN)NC(=O)[C@H](CC(C)C)NC(=O)[C@H](Cc1c[nH]c2ccccc12)NC(=O)[C@H](CCC(=O)O)NC(=O)[C@@H](NC(=O)[C@H](Cc1ccccc1)NC(=O)[C@H](CC(C)C)NC(=O)[C@H](CCC(N)=O)NC(=O)[C@H](C)NC(=O)[C@H](C)NC(=O)[C@H](CCCNC(=N)N)NC(=O)[C@H](CO)NC(=O)[C@H](CCC(=O)O)NC(=O)[C@H](CCSC)NC(=O)[C@H](CCC(N)=O)NC(=O)[C@H](CCCCN)NC(=O)[C@H](CO)NC(=O)[C@H](CC(C)C)NC(=O)[C@H](CC(=O)O)NC(=O)[C@H](CO)NC(=O)[C@@H](NC(=O)[C@H](Cc1ccccc1)NC(=O)[C@@H](NC(=O)CNC(=O)[C@H](CCC(N)=O)NC(=O)[C@@H](CO)NC(=O)[C@@H](N)Cc1c[nH]cn1)[C@@H](C)O)[C@@H](C)O)[C@@H](C)CC)C(N)=O)C(=O)O` [(79)] (H-H[dS]QGTFTSDLSKQMESRAAQLFIEWLKAGGPSSGAPPPSK([γGlu-Palmitoyl])-NH2), the EC50 in data set [1] turned out to be 195 pM; in data set [2], 3.7 pM. The figures for the solubility at 2 h in the data set “physchem” (pH 4.5) and in “physchem” (pH 7.4) were more than 1000 µg/mL and 666 µg/mL (≈ 145 µM), respectively.
As for `CCCCCCCCCCCCCCCC(=O)N[C@@H](CCC(=O)NCCCC[C@H](NC(=O)[C@H](CO)NC(=O)[C@@H]1CCCN1C(=O)[C@@H]1CCCN1C(=O)[C@@H]1CCCN1C(=O)[C@H](C)NC(=O)CNC(=O)[C@H](CO)NC(=O)[C@H](CO)NC(=O)[C@@H]1CCCN1C(=O)CNC(=O)CNC(=O)[C@H](CCCNC(=N)N)NC(=O)[C@H](CCCCN)NC(=O)[C@H](CC(C)C)NC(=O)[C@H](Cc1c[nH]c2ccccc12)NC(=O)[C@H](CCC(=O)O)NC(=O)[C@@H](NC(=O)[C@H](Cc1ccccc1)NC(=O)[C@H](CC(=O)O)NC(=O)[C@H](CCC(N)=O)NC(=O)[C@H](C)NC(=O)[C@H](CCCNC(=N)N)NC(=O)[C@H](CCCNC(=N)N)NC(=O)[C@H](CO)NC(=O)[C@H](CCC(=O)O)NC(=O)[C@H](CCSC)NC(=O)[C@H](CCC(N)=O)NC(=O)[C@H](CCCCN)NC(=O)[C@H](CO)NC(=O)[C@H](CC(C)C)NC(=O)[C@H](CC(=O)O)NC(=O)[C@H](CO)NC(=O)[C@@H](NC(=O)[C@H](Cc1ccccc1)NC(=O)[C@@H](NC(=O)CNC(=O)[C@H](CCC(N)=O)NC(=O)[C@@H](CO)NC(=O)[C@@H](N)Cc1c[nH]cn1)[C@@H](C)O)[C@@H](C)O)[C@@H](C)CC)C(N)=O)C(=O)O` [(75)] (H-H[dS]QGTFTSDLSKQMESRRAQDFIEWLKRGGPSSGAPPPSK([γGlu-Palmitoyl])-NH2), the solubility at 2 h in the data set “physchem” (pH 4.5) and in “physchem” (pH 7.4) was more than 1000 µg/mL in each case. This compound displayed an EC50 in data set [2] of 4.6 pM.
As to `CCCCCCCCCCCCCCCC(=O)N[C@@H](CCC(=O)NCCCC[C@H](NC(=O)[C@H](CO)NC(=O)[C@@H]1CCCN1C(=O)[C@@H]1CCCN1C(=O)[C@@H]1CCCN1C(=O)[C@H](C)NC(=O)CNC(=O)[C@H](CO)NC(=O)[C@H](CO)NC(=O)[C@@H]1CCCN1C(=O)CNC(=O)[C@@H](NC(=O)[C@H](CC(N)=O)NC(=O)[C@H](CCCCN)NC(=O)[C@H](CC(C)C)NC(=O)[C@H](Cc1c[nH]c2ccccc12)NC(=O)[C@H](CCC(=O)O)NC(=O)[C@@H](NC(=O)[C@H](Cc1ccccc1)NC(=O)[C@H](CC(=O)O)NC(=O)[C@H](CCC(N)=O)NC(=O)[C@H](C)NC(=O)[C@H](CCCNC(=N)N)NC(=O)[C@H](CCCNC(=N)N)NC(=O)[C@H](CO)NC(=O)[C@H](CC(=O)O)NC(=O)[C@H](CCSC)NC(=O)[C@H](CCC(N)=O)NC(=O)[C@H](CCCCN)NC(=O)[C@H](CO)NC(=O)[C@H](CC(C)C)NC(=O)[C@H](CC(=O)O)NC(=O)[C@H](CO)NC(=O)[C@@H](NC(=O)[C@H](Cc1ccccc1)NC(=O)[C@@H](NC(=O)CNC(=O)[C@H](CCC(N)=O)NC(=O)[C@@H](CO)NC(=O)[C@@H](N)Cc1c[nH]cn1)[C@@H](C)O)[C@@H](C)O)[C@@H](C)CC)[C@@H](C)O)C(N)=O)C(=O)O` [(71)], the EC50 in data set [1] worked out at 1.9 pM.
Still for that read-out and setting: next, `CC[C@H](C)[C@H](NC(=O)[C@H](Cc1ccccc1)NC(=O)[C@H](CC(=O)O)NC(=O)[C@H](CCC(N)=O)NC(=O)[C@H](C)NC(=O)[C@H](CCCNC(=N)N)NC(=O)[C@H](CCCNC(=N)N)NC(=O)[C@H](CCC(=O)O)NC(=O)[C@H](CC(=O)O)NC(=O)[C@H](CCSC)NC(=O)[C@H](CCC(N)=O)NC(=O)[C@H](CCCCN)NC(=O)[C@H](CO)NC(=O)[C@H](CC(C)C)NC(=O)[C@H](CC(=O)O)NC(=O)[C@H](CO)NC(=O)[C@@H](NC(=O)[C@H](Cc1ccccc1)NC(=O)[C@@H](NC(=O)CNC(=O)[C@H](CCC(N)=O)NC(=O)[C@H](CO)NC(=O)[C@@H](N)Cc1c[nH]cn1)[C@@H](C)O)[C@@H](C)O)C(=O)N[C@@H](CCC(=O)O)C(=O)N[C@@H](Cc1c[nH]c2ccccc12)C(=O)N[C@@H](CC(C)C)C(=O)N[C@@H](CCCCN)C(=O)N[C@@H](CC(N)=O)C(=O)NCC(=O)NCC(=O)N1CCC[C@H]1C(=O)N[C@@H](CO)C(=O)N[C@@H](CO)C(=O)NCC(=O)N[C@@H](C)C(=O)N1CCC[C@H]1C(=O)N1CCC[C@H]1C(=O)N1CCC[C@H]1C(=O)N[C@@H](CO)C(N)=O` [(5)] (H-HSQGTFTSDLSKQMDERRAQDFIEWLKNGGPSSGAPPPS-NH2): 67 pM.
